Reference: ChEMBL document CHEMBL5154919, “New ZW4864 Derivatives as Small-Molecule Inhibitors for the β-Catenin/BCL9 Protein-Protein Interaction” (ACS Med Chem Lett, 2022)

Key:
[1] = target: T1, beta-catenin-B-cell lymphoma 9 protein complex (Homo sapiens, UniProt P35222); test: Inhibition of full length beta-catenin (1 to 781 residues) (unknown origin) expressed in Escherichia coli BL21 (DE3)-N-terminal biotinylated human BCL9 (350 to 375 residues) protein-protein interaction incubated for 1 hr by Alphascreen assay
T1 sequence (P35222 whole entry): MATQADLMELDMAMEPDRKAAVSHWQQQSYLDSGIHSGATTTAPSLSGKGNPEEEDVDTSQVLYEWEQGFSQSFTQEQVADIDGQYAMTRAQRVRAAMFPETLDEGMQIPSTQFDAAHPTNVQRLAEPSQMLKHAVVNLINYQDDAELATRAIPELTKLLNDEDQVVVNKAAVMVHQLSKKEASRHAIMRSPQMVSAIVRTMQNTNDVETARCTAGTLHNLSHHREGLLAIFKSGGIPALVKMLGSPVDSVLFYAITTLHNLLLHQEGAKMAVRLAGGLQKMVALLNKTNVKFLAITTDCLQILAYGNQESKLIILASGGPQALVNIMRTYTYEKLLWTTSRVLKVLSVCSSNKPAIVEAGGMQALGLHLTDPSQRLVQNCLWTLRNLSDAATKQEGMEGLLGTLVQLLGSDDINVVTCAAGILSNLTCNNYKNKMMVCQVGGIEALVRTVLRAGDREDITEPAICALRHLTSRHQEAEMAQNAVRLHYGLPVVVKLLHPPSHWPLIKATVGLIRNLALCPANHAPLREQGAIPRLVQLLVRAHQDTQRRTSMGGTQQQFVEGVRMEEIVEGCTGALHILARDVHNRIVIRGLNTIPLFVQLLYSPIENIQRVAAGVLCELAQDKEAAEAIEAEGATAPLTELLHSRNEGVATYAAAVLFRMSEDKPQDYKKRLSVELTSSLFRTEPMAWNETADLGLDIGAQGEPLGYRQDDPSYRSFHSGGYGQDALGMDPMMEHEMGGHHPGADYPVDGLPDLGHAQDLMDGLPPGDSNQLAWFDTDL
T1 sequence (O00512 whole entry): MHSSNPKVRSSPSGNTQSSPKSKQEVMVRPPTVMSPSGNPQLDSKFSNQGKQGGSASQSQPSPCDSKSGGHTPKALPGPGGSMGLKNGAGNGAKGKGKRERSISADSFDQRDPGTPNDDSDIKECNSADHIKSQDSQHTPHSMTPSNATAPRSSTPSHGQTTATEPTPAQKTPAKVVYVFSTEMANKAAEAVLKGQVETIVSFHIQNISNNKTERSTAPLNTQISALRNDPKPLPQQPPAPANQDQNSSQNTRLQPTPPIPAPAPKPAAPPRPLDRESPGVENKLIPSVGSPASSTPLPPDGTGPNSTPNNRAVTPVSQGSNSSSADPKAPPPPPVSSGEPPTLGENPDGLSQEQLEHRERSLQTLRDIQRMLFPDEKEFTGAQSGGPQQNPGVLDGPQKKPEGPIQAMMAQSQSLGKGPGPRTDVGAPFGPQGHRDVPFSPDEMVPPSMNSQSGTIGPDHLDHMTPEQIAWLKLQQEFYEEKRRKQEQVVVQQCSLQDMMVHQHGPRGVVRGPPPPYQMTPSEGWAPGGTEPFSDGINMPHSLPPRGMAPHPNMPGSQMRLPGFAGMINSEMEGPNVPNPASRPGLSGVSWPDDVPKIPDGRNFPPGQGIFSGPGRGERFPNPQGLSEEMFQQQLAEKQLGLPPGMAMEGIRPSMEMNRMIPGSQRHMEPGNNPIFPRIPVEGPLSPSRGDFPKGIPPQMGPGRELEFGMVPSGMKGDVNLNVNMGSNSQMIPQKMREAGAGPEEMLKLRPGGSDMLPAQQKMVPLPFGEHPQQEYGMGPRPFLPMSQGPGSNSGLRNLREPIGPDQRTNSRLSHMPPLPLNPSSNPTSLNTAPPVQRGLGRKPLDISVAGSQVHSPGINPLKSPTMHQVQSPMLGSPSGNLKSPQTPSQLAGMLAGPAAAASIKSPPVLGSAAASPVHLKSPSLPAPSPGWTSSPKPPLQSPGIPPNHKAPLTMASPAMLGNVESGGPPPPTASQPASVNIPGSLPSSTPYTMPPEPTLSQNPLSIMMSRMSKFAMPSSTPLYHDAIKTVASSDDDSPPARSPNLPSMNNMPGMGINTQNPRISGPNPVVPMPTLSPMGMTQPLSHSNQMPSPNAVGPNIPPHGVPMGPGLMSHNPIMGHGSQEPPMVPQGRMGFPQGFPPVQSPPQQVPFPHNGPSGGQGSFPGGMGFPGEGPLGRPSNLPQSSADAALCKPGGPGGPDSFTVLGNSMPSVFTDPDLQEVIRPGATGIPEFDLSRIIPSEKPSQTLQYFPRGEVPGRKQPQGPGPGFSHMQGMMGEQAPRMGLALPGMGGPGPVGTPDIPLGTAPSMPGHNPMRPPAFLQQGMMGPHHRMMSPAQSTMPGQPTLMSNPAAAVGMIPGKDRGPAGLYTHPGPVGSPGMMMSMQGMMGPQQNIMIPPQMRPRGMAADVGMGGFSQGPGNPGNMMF

[2] = target: T2, CYP1A2 (Homo sapiens, UniProt P05177); test: Inhibition of CYP1A2 in human liver microsomes using phenacetin at 10 uM in presence of NADPH incubated for 10 mins; format: ADME, Microsome; conditions: probe phenacetin
T2 sequence (P05177 whole entry): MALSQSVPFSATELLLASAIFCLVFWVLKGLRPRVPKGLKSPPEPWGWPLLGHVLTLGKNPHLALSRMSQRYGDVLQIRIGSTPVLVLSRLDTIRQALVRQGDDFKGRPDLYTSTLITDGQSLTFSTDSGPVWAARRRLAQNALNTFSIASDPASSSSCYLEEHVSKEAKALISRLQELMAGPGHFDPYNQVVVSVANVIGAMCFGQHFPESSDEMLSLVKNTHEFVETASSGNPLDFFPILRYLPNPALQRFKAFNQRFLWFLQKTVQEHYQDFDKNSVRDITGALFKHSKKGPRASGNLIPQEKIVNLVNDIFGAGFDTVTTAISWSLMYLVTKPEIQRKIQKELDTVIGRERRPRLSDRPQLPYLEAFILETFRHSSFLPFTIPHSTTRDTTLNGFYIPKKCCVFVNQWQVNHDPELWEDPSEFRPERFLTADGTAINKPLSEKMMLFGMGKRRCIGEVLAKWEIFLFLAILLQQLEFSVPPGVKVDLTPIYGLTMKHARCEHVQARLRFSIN

[3] = target: CYP2D6 (Homo sapiens, UniProt P10635); test: Inhibition of CYP2D6 in human liver microsomes using bufuralol as substrate at 10 uM in presence of NADPH incubated for 10 mins; format: ADME, Microsome; conditions: probe bufuralol
Chain of CYP2D6 (P10635 whole entry): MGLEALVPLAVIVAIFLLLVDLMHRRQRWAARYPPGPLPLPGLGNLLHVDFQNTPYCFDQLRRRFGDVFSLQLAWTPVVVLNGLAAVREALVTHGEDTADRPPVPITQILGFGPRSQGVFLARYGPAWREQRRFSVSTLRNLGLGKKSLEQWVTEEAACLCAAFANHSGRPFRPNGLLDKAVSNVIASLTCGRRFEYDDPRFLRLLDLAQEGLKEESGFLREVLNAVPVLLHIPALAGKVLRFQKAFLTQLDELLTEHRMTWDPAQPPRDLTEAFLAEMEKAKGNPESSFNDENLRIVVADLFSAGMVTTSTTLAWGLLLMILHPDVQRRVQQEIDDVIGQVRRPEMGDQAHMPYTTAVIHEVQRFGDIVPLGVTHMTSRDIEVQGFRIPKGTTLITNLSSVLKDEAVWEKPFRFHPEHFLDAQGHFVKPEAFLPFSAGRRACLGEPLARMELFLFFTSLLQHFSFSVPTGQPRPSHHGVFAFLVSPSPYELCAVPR

[4] = target: CYP2C9 (Homo sapiens, UniProt P11712); test: Inhibition of CYP2C9 in human liver microsomes using tolbutamide as substrate at 10 uM in presence of NADPH incubated for 10 mins; format: ADME, Microsome; conditions: probe tolbutamide
Chain of CYP2C9 (P11712 whole entry): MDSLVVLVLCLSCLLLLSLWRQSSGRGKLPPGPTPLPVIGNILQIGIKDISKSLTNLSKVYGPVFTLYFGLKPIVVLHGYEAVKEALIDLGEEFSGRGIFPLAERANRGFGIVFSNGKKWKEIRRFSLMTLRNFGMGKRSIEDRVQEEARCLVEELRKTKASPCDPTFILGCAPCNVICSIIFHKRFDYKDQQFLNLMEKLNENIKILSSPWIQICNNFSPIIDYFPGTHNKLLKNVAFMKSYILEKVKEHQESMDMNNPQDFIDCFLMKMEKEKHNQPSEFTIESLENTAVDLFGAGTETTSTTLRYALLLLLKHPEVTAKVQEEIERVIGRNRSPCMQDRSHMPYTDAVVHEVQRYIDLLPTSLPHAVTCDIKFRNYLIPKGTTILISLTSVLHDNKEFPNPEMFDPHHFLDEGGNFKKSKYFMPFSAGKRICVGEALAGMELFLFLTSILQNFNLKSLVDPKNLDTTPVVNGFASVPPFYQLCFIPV

[5] = target: CYP3A4 (Homo sapiens, UniProt P08684); test: Inhibition of CYP3A4 in human liver microsomes using Midazolam as substrate at 10 uM in presence of NADPH incubated for 10 mins; format: ADME, Microsome; conditions: probe midazolam
Chain of CYP3A4 (P08684 whole entry): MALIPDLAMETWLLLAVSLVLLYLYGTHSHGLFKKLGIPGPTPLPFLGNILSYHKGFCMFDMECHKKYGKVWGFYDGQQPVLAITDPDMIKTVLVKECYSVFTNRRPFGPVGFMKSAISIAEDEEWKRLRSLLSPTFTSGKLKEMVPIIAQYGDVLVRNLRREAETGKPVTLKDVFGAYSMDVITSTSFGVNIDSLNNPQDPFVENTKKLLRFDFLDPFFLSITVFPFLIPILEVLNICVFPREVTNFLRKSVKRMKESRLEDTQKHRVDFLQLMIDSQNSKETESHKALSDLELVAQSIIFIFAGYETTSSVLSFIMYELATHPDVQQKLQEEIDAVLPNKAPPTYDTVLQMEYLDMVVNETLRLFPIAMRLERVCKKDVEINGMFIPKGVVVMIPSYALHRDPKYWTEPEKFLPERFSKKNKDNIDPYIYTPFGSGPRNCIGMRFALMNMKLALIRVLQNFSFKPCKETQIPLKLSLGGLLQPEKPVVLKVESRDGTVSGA

[6] = test system: MDA-MB-231; test: Antiproliferative activity against human MDA-MB-231 cells assessed as inhibition of cell growth measured by MTS method; format: functional, cell-based
[7] = test system: MDA-MB-468; test: Antiproliferative activity against human MDA-MB-468 cells assessed as inhibition of cell growth measured by MTS method; format: functional, cell-based
[8] = test system: MCF-10A; test: Antiproliferative activity against human MCF-10A cells assessed as inhibition of cell growth measured by MTS method; format: functional, cell-based
[9] = test system: HCT-116; test: Antiproliferative activity against human HCT-116 cells assessed as inhibition of cell growth measured by MTS method; format: functional, cell-based
[10] = test system: SW480; test: Antiproliferative activity against human SW480 cells assessed as inhibition of cell growth measured by MTS method; format: functional, cell-based
[11] = Inhibition of Wnt/beta-catenin transactivation signalling in human SW480 cells by TOPFlash reporter gene assay; format: cell-based

Row | SMILES | IC50 [1] | Ki [1] | further results
1 | CC(C)(Oc1cccc(N2CCC[C@@H](C(=O)N(Cc3ccc(-c4cn[nH]c4)cc3)C3CC3)C2)c1)C(=O)N1CC2(CNC2)C1 | 44 µM | 37 µM | 
2 | CC(C)(Oc1cccc(N2CCC[C@@H](C(=O)N(Cc3ccc(-c4cn[nH]c4)cc3)C3CC3)C2)c1)C(=O)N1CCNCC1 |  |  | inhibition at 10 min, 10 µM [2]: 17%; inhibition at 10 min, 10 µM [3]: 73%; inhibition at 10 min, 10 µM [4]: 83%; inhibition at 10 min, 10 µM [5]: 96%
3 | CC(C)(Oc1cccc(N2CCC[C@@H](C(=O)N(Cc3ccc(-c4cn[nH]c4)cc3)C3CC3)C2)c1)C(=O)N1CCC2(CCNC2)C1 (some centres not stated) | 12 µM | 9.8 µM | 
4 | CC(C)(Oc1cccc(N2CCC[C@@H](C(=O)N(Cc3ccc(-c4cn[nH]c4)cc3)C3CCCC3)C2)c1)C(=O)N1CCNCC1 | 7.6 µM | 6.8 µM | 
5 | O=C([C@@H]1CCCN(c2cccc(OC3(C(=O)N4CCNCC4)CCCC3)c2)C1)N(Cc1ccc(-c2cn[nH]c2)cc1)C1CC1 | 43 µM | 39 µM | 
6 | CC(C)N(Cc1ccc(-c2cn[nH]c2)cc1)C(=O)[C@@H]1CCCN(c2cccc(OC(C)(C)C(=O)N3CCNCC3)c2)C1 | 8.9 µM | 8 µM | 
7 | O=C([C@@H]1CCCN(c2cccc(OC3(C(=O)N4CCNCC4)CC3)c2)C1)N(Cc1ccc(-c2cn[nH]c2)cc1)C1CC1 | 29 µM | 24 µM | 
8 | CC(C)(Oc1cccc(N2CCC[C@@H](C(=O)N(Cc3ccc(-c4cn[nH]c4)cc3)CC3CC3)C2)c1)C(=O)N1CCNCC1 | 18 µM | 15 µM | 
9 | CC(C)(Oc1cccc(N2CCC[C@@H](C(=O)N(Cc3ccc(-c4c[nH]c5ncccc45)cc3)C3CC3)C2)c1)C(=O)N1CCNCC1 | 0.96 µM | 0.85 µM | IC50 [6]: 4.6 µM; IC50 [7]: 5 µM; IC50 [8]: 24 µM; IC50 [9]: 8.1 µM; IC50 [10]: 9.7 µM; IC50 [11]: 11 µM
10 | CC(C)(Oc1cccc(N2CCC[C@@H](C(=O)N(Cc3ccc(-c4cn[nH]c4)cc3)C3CC3)C2)c1)C(=O)N1CCC2(CNC2)C1 | 20 µM | 16 µM | 

The next lines start with results.

Row | IC50 [1] | Ki [1] | SMILES | further results
11 | 81 µM | 73 µM | CC(C)(Oc1cccc(N2CCC[C@@H](C(=O)NCc3ccc(-c4cn[nH]c4)cc3)C2)c1)C(=O)N1CCNCC1 | 
12 | 28 µM | 25 µM | CN(Cc1ccc(-c2cn[nH]c2)cc1)C(=O)[C@@H]1CCCN(c2cccc(OC(C)(C)C(=O)N3CCNCC3)c2)C1 | 
13 | 2.2 µM | 1.8 µM | CC(C)(Oc1cccc(N2CCC[C@@H](C(=O)N(Cc3ccc(-c4ccnc5[nH]ccc45)cc3)C3CC3)C2)c1)C(=O)N1CCNCC1 | IC50 [6]: 6.5 µM; IC50 [7]: 5.5 µM; IC50 [8]: 29 µM; IC50 [9]: 7.7 µM; IC50 [10]: 10 µM; IC50 [11]: 15 µM
14 | 1.4 µM | 1.2 µM | CC(C)(Oc1cccc(N2CCC[C@@H](C(=O)N(Cc3ccc(-c4c[nH]c5ccccc45)cc3)C3CC3)C2)c1)C(=O)N1CCNCC1 | 
15 | 2.5 µM | 2 µM | CC(C)(Oc1cccc(N2CCC[C@@H](C(=O)N(Cc3ccc(-c4cccc5[nH]ncc45)cc3)C3CC3)C2)c1)C(=O)N1CCNCC1 | 
16 | 8.3 µM | 6.8 µM | CC(C)(Oc1cccc(N2CCC[C@@H](C(=O)N(Cc3ccc(-c4cn[nH]c4)cc3)C3CC3)C2)c1)C(=O)N1C[C@H]2CNC[C@H]2C1 | 
17 | 38 µM | 31 µM | CC(C)(Oc1cccc(N2CCC[C@@H](C(=O)N(Cc3ccc(-c4cn[nH]c4)cc3)C3CC3)C2)c1)C(=O)N1CC2(CCNCC2)C1 | 
18 | 12 µM | 11 µM | CC(C)(Oc1cccc(N2CCC[C@@H](C(=O)N(Cc3ccc(-c4cn[nH]c4)cc3)C3CCC3)C2)c1)C(=O)N1CCNCC1 | 
19 | 23 µM | 21 µM | O=C(C(Oc1cccc(N2CCC[C@@H](C(=O)N(Cc3ccc(-c4cn[nH]c4)cc3)C3CC3)C2)c1)c1ccccc1)N1CCNCC1 (some centres not stated) | 
